Experimental data published in patent US11234943B2, “Use of reservatrol for the treatment of non-alcoholic fatty liver disease (NAFLD)” (priority 2016, dated 2022).

Legend:
patients with NAFLD [1] = assay: Blood tests in 6-month study of NAFLD patients given resveratrol micronized formulation; type: in vivo, human; set-up: unit not given here
Experimental: In this study. 50 mg or 200 mg RSV daily were supplemented to the standard treatment of 44 patients with NAFLD for a period of 6 months and the therapeutic efficacy of RSV was investigated. All patients who participated in this process were volunteers and they have provided written consents as well filled out all the required documents. The patients were selected after they were firstly diagnosed with non-alcoholic fatty liver disease. The primary inclusion criterion was evidence of tatty liver on ultrasonography (LS), which is the most commonly, used imaging technique with remarkable sensitivity. The US findings in non-alcoholic fatty liver disease are:
Participants underwent clinical examination, electrocardiogram and abdominal ultrasound. Also, blood tests were carried out and the following parameters were measured: serum glutamic pyruvic transaminase (SGPT), serum glutamic oxaloacetic transaminase (SGOT), Alkaline phosphatase (ALP), gamma-glutamyl transpeptidase (gGT), glucose, total cholesterol levels, high-density lipoprotein (HDL), low-density lipoprotein (LDL), triglycerides (TG), insulin, insulin resistance, liver value, liver depth, kidney value, kidney depth and difference liver-kidney values.
(§1) Then, the patients were divided into two groups (randomly assigned) according to the treatment given to them. 22 patients were given treatment 50 mg RSV micronized formulation, Evelor capsules once daily, (Group A) and 22 patients were given treatment 200 mg RSV micronized formulation, Evelor capsules, once daily, (Group B). The observation period lasted for 6 months. There was a clinical examination, blood tests and an abdominal ultrasound at the beginning of the study (time 1) and in 6 months (time 2). All patients were on low fat diet and they were being followed up by nutritionist.
Two-way ANOVA with interaction (time and group) was used to test whether there are differences among dose levels, time levels and possible interaction among them. However, no significant interactions were discovered and standard two-way ANOVA was used without interactions. Moreover, an independent t-test was conducted to examine whether there were any differences between the values of physiological parameters at the beginning and the end of the study. A p-value<0.001 was considered to indicate a strongly statistically significant difference. The statistical program used was R 3.2.1.

NAFLD patients = settings: meta-analysis of four trials, 156 patients, cited from earlier work
[2] = system: subjects with non-alcoholic fatty liver disease; settings: two 150 mg capsules twice daily for three months, cited from earlier work
patients with NAFLD [3] = assay: Adverse reactions during the 6-month study; type: in vivo, human; settings: 50 mg or 200 mg once daily, 6 months
Experimental: Quantitative fat measurement, with ultrasound on the liver and kidney, were carried out. There was an initial measurement (time 1) and one after six months (time 2). […] As will be apparent, the results were highly positive, see the difference (Liver value Kidney Value) which is decreased during the time, even 2.5 years after the end of the study.
as §1

[4] = Group A, 50 mg once daily, mean at time 1 (beginning of study)
[5] = Group A, 50 mg once daily, mean at time 2 (6 months)
[6] = Group B, 200 mg once daily, mean at time 1 (beginning of study)
[7] = Group B, 200 mg once daily, mean at time 2 (6 months)

With `Oc1ccc(/C=C/c2cc(O)cc(O)c2)cc1` [Resveratrol, resveratrol] the ALP (patients with NAFLD [1]; [4]) was 63.63, the CH (patients with NAFLD [1]; [4]) was 194.50 and the GLU (patients with NAFLD [1]; [4]) was 105.95. The HDL (patients with NAFLD [1]; [4]) was 48.60, the Insulin (patients with NAFLD [1]; [4]) was 13.58 and the “Insulin Resistance” value (patients with NAFLD [1]; [4]) was 1405.81. It also gave an LDL (patients with NAFLD [1]; [4]) of 119.45, an SGOT (patients with NAFLD [1]; [4]) of 24.95 and an SGPT (patients with NAFLD [1]; [4]) of 36.09. It also gave a TG (patients with NAFLD [1]; [4]) of 132.50, a gGT (patients with NAFLD [1]; [4]) of 30.95 and an ALP (patients with NAFLD [1]; [5]) of 59.23. The CH (patients with NAFLD [1]; [5]) was 185.67, the GLU (patients with NAFLD [1]; [5]) was 96.57 and the HDL (patients with NAFLD [1]; [5]) was 47.67. For the same molecule, the Insulin (patients with NAFLD [1]; [5]) was 12.69, the “Insulin Resistance” value (patients with NAFLD [1]; [5]) was 1226.04 and the LDL (patients with NAFLD [1]; [5]) was 116.19. It also gave an SGOT (patients with NAFLD [1]; [5]) of 26.33, an SGPT (patients with NAFLD [1]; [5]) of 37.24 and a TG (patients with NAFLD [1]; [5]) of 109.76. It also gave a gGT (patients with NAFLD [1]; [5]) of 27.00, an ALP (patients with NAFLD [1]; [6]) of 74.50 and a CH (patients with NAFLD [1]; [6]) of 194.27. For the same molecule, the GLU (patients with NAFLD [1]; [6]) was 121.18, the HDL (patients with NAFLD [1]; [6]) was 41.14 and the Insulin (patients with NAFLD [1]; [6]) was 12.62. The “Insulin Resistance” value (patients with NAFLD [1]; [6]) was 1541.04, the LDL (patients with NAFLD [1]; [6]) was 118.75 and the SGOT (patients with NAFLD [1]; [6]) was 32.81. For the same molecule, the SGPT (patients with NAFLD [1]; [6]) was 47.05, the TG (patients with NAFLD [1]; [6]) was 205.13 and the gGT (patients with NAFLD [1]; [6]) was 29.20. It also gave an ALP (patients with NAFLD [1]; [7]) of 71.20, a CH (patients with NAFLD [1]; [7]) of 181.15 and a GLU (patients with NAFLD [1]; [7]) of 112.50. The HDL (patients with NAFLD [1]; [7]) was 41.70, the Insulin (patients with NAFLD [1]; [7]) was 13.01 and the “Insulin Resistance” value (patients with NAFLD [1]; [7]) was 1489.52. The LDL (patients with NAFLD [1]; [7]) was 105.95, the SGOT (patients with NAFLD [1]; [7]) was 30.90 and the SGPT (patients with NAFLD [1]; [7]) was 41.70. For the same molecule, the TG (patients with NAFLD [1]; [7]) was 167.80, the gGT (patients with NAFLD [1]; [7]) was 25.35 and the “total cholesterol, mean difference (MD) vs placebo” value (NAFLD patients; 95% CI: 0.18, 0.80, higher in resveratrol groups) was 0.49. For the same molecule, the “low-density lipoprotein, mean difference (MD) vs placebo” value (NAFLD patients; 95% CI: 0.21, 0.74, higher in resveratrol groups) was 0.47, the “effects on attenuating NAFLD” value (NAFLD patients) was “negligible effects” and the alanine aminotransferase ([2]; compared with placebo group) was “significantly decreased”. For the same molecule, the aspartate aminotransferase ([2]; compared with placebo group) was “significantly decreased”, the glucose ([2]; compared with placebo group) was “significantly decreased” and the “homeostasis model assessment insulin resistance index” value ([2]; compared with placebo group) was “significantly decreased”. For the same molecule, the low-density lipoprotein cholesterol ([2]; compared with placebo group) was “significantly decreased”, the total cholesterol ([2]; compared with placebo group) was “significantly decreased” and the adiponectin level ([2]; resveratrol group) was “elevation”. For the same molecule, the “level of TNF-α” value ([2]; resveratrol group) was “significant reductions”, the “level of cytokeratin 18 fragment” value ([2]; resveratrol group) was “significant reductions” and the “level of fibroblast growth factor” value ([2]; resveratrol group) was “significant reductions”. The “adverse reactions (side effects)” value (patients with NAFLD [3]) was “No adverse reactions (side effects) were noted”.
